Publication PMC7179302, “Lead Optimization of Dehydroemetine for Repositioned Use in Malaria” (Antimicrobial Agents and Chemotherapy, 2020)
Where a name gives a salt, the structure may show the parent alone.

Columns and labels:
Entamoeba histolytica = tested on: Entamoeba histolytica; parameters: method as in PMID 15610563, PMID 24107123; settings: cited from earlier work
HepG2 cells = experiment: MTT assay for cell cytotoxicity against HepG2 cells; type: cell-based; settings: HepG2 cells, 48 h; ± SD
Experimental: HepG2 cells (University of Salford stocks, purchased from American Type Culture Collection [ATCC], USA), were grown in medium consisting of RPMI 1640, 2 mM L-glutamine, HEPES, 10% fetal bovine serum, 1% nonessential amino acids, and 1% penicillin-streptomycin. Cells were calculated on a hemocytometer to make a new cell-medium solution to a concentration of 5,000 cells/100 μl, and 100 μl of this new cell solution was added into each well of the 96-well plate. After 24 h of incubation, 100-μl amounts of the drug prepared in the medium were added to the wells. This was repeated in triplicate, and the plate was incubated for a further 48 h ([56]). After the incubation period, 50 μl of MTT solution was added to each well and incubated for 3 h. The liquid in each well was aspirated carefully, 200 μl of DMSO was added to each well, and the results were read on the Ascent plate reader.

[1] = tested on: mitochondrial membrane potential of P. falciparum strain K1 trophozoites; experiment: Rhodamine 123 staining for mitochondrial membrane potential, flow cytometry; type: cell-based, Plasmodium falciparum; settings: deviation from infected blood without drugs
Experimental: Changes in mitochondrial membrane potential were measured using rhodamine 123 (excitation wavelength, 511 nm; emission wavelength, 534 nm), a membrane-permeating cationic fluorescent dye ([49]), which accumulates by electrostatic attraction in the mitochondria because of its negative transmembrane potential. A change in the dye’s concentration in the mitochondria is caused by a depolarization event and can be visualized as a shift in the fluorescence intensity of rhodamine 123 ([50]). Draq5 (excitation wavelength, 647 nm; emission wavelength, >665 nm) is a far-red fluorescent DNA dye which is cell permeating and was used to distinguish the parasites in flow cytometry in the allophycocyanin (APC)-Cy7-A channel. SYBR green was not preferred for this experiment as it emits in the same channel as rhodamine 123 and would result in the overlap of emission signals. Fluorescence microscopy was used to visualize the localization of rhodamine 123 within the cytoplasm of the parasites (Fig. 9).
A decrease in fluorescence intensity measured in the fluorescein isothiocyanate (FITC)-A channel indicates a loss of mitochondrial membrane potential. Atovaquone, a known mitochondrial inhibitor, was used as a control.
Compounds were then washed away by centrifuging the cultures, and a pellet was prepared for each drug concentration. Pellets were then incubated with 1 ml of 200 nM rhodamine 123 for 1 h, followed by a further incubation with 100 μl of 5 μM Draq5 for 20 min. After a wash with PBS, the experiment was read with a flow cytometer on the FITC channel. Loss of mitochondrial membrane potential was indicated by a decrease in fluorescence intensity.

[2] = tested on: K1 strain of P. falciparum; parameters: method as in PMID 15610563, PMID 24107123; settings: mean ± standard deviation; cited from earlier work
P. falciparum strain Dd2 = experiment: microbe, parasite or virus in culture; type: cell-based; settings: Plasmodium falciparum, DD2, read-out: IC50 (μM) Dd2
Experimental: (§1) The cross-resistance assay used relies on the parasites’ incorporation of labeled 3H-hypoxanthine, which is proportional to P. falciparum growth. In vitro cross-resistance of the compounds is measured as the ratio between the IC50 for the tested P. falciparum strain and the IC50 for strain 3D7A. Every replicate from a multidrug-resistant (MDR) strain involved a simultaneous determination using a 3D7A replicate to avoid any artifact linked to experimental conditions.
(§2) The three strains used for the cross-resistance assay were 3D7A, Dd2, and W2, based on their resistance profiles; the assay was carried out by GSK, Tres Cantos. Strain 3D7A is chloroquine sensitive, strain Dd2 is resistant to chloroquine, mefloquine, and pyrimethamine ([57]), and strain W2 is resistant to chloroquine, quinine, pyrimethamine, cycloguanil, and sulfadoxine (from the Malaria Research and Reference Reagent Resource Center [MR4]) ([58]). A culture of red blood cells (RBCs) parasitized by the corresponding strain (0.5% parasitemia, 2% hematocrit) in RPMI 1640, […], and 5 μM hypoxanthine was exposed to 9 dilutions (3-fold serial dilutions) of the compound starting at 5 μM. One hundred microliters of culture volume was plated in 96-well flat-bottom microtiter plates with 0.5 μl drug (200× stock in DMSO). Plates were incubated for 24 h at 37°C, 5% CO2, 5% O2, 90% N2. Next, 3H-hypoxanthine was added and plates were incubated for another 24-h period. After that, parasites were harvested on a glass fiber filter using a TomTec cell harvester 96. Filters were dried, and melt-on scintillator sheets were used to determine the incorporation of 3H-hypoxanthine. Radioactivity was measured using a MicroBeta counter. […] IC50 values were determined using the Grafit 7 program ([41]).

P. falciparum strain W2 = experiment: microbe, parasite or virus in culture; type: cell-based; settings: Plasmodium falciparum, W2, read-out: IC50 (μM) W2
Experimental: as §1, §2

[3] = tested on: P. falciparum strain 3D7A; experiment: 3H-hypoxanthine incorporation assay, strain 3D7A; type: cell-based; settings: Plasmodium falciparum; sensitive strain 3D7A, 3H-hypoxanthine incorporation; read-out: IC50 (μM) 3D7A
Experimental: as §1, §2

CC[C@H]1CN2CCc3cc(OC)c(OC)cc3[C@@H]2C[C@@H]1C[C@H]1NCCc2cc(OC)c(OC)cc21 [Emetine dihydrochloride, emetine dihydrochloride, reference compound]
IC50 (Entamoeba histolytica): 26800 ± 1270 nM
LD50 (50% lethal dose), MTT assay (HepG2 cells): 199.2 ± 9.3 nM
Change in fluorescence intensity (FITC-A mean) of rhodamine 123 ([1]; at 10× IC50, 2 h): 35.13%
Change in fluorescence intensity (FITC-A mean) of rhodamine 123 ([1]; at IC50, 2 h): 31.12%
IC50 [2]: 47 nM
IC50 (P. falciparum strain Dd2): 0.269 µM
IC50 (P. falciparum strain W2): 0.181 µM
IC50 [3]: 0.234 µM

O=C1C(O)=C([C@H]2CC[C@H](c3ccc(Cl)cc3)CC2)C(=O)c2ccccc21 [Atovaquone, atovaquone]
Change in fluorescence intensity (FITC-A mean) of rhodamine 123 ([1]; at 10× IC50, 2 h): 43.17%
Change in fluorescence intensity (FITC-A mean) of rhodamine 123 ([1]; at IC50, 2 h): 41.95%
